US7932270B2 (Cytokinetics, Inc., priority 2006, dated 2011)

Target: T1, chicken gizzard smooth muscle myosin subfragment-1 chemically crosslinked to cardiac or skeletal actin (Gallus gallus, UniProt P10587)
T1 construct: chicken gizzard smooth muscle myosin subfragment-1; from tissue; host or cells: chicken gizzard
Assay: Smooth muscle myosin ATPase dose response assay (pyruvate kinase/horseradish peroxidase/pyruvate oxidase-coupled, amplex red fluorescence)
Format: biochemical
Conditions: read-out: IC50 Arithmetic Mean
How it was run: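 Lead-optimization format: ATPase coupled via pyruvate kinase, pyruvate oxidase and peroxidase, pH 7.00 at 22° C, with 0.15 mM ATP, 100 mM KCl, 2 mM MgCl2, 2 mM phosphate and 0.1 mM amplex red (final). Crosslinked S1 titrated empirically for set hydrolysis rate; fluorescence (ex 480/em 615 nm) dose curves fit 4-parameter for IC50.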

T1 sequence (P02607 2-151): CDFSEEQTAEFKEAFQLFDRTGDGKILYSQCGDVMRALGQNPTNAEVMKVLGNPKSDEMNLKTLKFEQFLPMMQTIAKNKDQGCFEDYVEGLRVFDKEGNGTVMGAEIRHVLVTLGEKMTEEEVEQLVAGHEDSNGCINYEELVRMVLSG
T1 sequence (P10587 84-789): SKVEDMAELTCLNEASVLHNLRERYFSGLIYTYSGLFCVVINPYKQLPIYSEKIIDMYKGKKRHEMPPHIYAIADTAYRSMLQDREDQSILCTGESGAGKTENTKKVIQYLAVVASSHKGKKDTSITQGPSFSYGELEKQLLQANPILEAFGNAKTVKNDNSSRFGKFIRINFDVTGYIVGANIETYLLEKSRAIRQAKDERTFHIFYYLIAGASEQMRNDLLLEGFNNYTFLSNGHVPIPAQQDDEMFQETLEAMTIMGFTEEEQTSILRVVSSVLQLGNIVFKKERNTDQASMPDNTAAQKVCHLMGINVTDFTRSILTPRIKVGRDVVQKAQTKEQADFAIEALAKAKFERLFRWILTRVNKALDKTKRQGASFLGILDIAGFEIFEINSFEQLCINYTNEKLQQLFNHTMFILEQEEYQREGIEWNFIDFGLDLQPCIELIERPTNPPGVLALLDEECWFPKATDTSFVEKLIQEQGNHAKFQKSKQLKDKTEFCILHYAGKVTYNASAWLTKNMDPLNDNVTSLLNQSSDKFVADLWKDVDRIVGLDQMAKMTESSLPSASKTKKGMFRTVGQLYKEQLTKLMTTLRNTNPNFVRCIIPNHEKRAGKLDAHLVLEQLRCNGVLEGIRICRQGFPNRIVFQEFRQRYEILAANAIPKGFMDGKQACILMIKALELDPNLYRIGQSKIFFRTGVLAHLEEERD

| IC50 [µM] | Compound |
| --- | --- |
| 0.119 | CC(=O)N1CCC[C@@H]1CNC(=O)c1ccc(-c2ccccc2C#N)nc1NCCc1cccc(F)c1 [N-[((2R)-1-acetylpyrrolidin-2-yl)methyl](6-(2-cyanophenyl)-2-{[2-(3-fluorophenyl)ethyl]amino}(3-pyridyl))carboxamide] |
| 2.13 | CC(=O)c1ccc(-c2ccc(C(=O)NCc3cccnc3)c(NCCc3ccccn3)n2)cc1 [{6-(4-acetylphenyl)-2-[(2-(2-pyridyl)ethyl)amino](3-pyridyl)}-N-(3-pyridylmethyl)carboxamide] |
| 0.031 | N#Cc1ccccc1-c1ccc(C(=O)NCC2CCCN(CCN)C2=O)c(NCCc2cccc(F)c2)n1 (centres unmarked) [N-{[1-(2-aminoethyl)-2-oxo(3-piperidyl)]methyl}(6-(2-cyanophenyl)-2-{[2-(3-fluorophenyl)ethyl]amino}(3-pyridyl))carboxamide] |
| 1.7 | CC(=O)N1CCC(CNC(=O)c2ccc(-c3ccccc3C#N)nc2NCCc2cccc(F)c2)CC1 [N-[(1-acetyl(4-piperidyl))methyl](6-(2-cyanophenyl)-2-{[2-(3-fluorophenyl)ethyl]amino}(3-pyridyl))carboxamide] |
| 0.052 | N#Cc1ccccc1-c1ccc(C(=O)NC[C@H]2CCCN2C(=O)[C@@H](N)CCCN)c(NCCc2cccc(F)c2)n1 [N-{[(2R)-1-((2S)-2,5-diaminopentanoyl)pyrrolidin-2-yl]methyl}(6-(2-cyanophenyl)-2-{[2-(3-fluorophenyl)ethyl]amino}(3-pyridyl))carboxamide] |
| 0.38 | N#Cc1ccccc1-c1ccc(C(=O)NCc2cccnc2)c(NCCc2ccccc2O)n1 [(6-(2-cyanophenyl)-2-{[2-(2-hydroxyphenyl)ethyl]amino}(3-pyridyl))-N-(3-pyridylmethyl)carboxamide] |
| 0.116 | N#Cc1ccccc1-c1ccc(C(=O)NC[C@H]2CCCN2C(=O)CO)c(NCCc2cccc(F)c2)n1 [N-{[(2R)-1-(2-hydroxyacetyl)pyrrolidin-2-yl]methyl}(6-(2-cyanophenyl)-2-{[2-(3-fluorophenyl)ethyl]amino}(3-pyridyl))carboxamide] |
| 0.024 | N#Cc1ccccc1-c1ccc(C(=O)NCc2cccnc2)c(NCCc2cccc(F)c2)n1 [(6-(2-cyanophenyl)-2-{[2-(3-fluorophenyl)ethyl]amino}(3-pyridyl))-N-(3-pyridylmethyl)carboxamide] |
| 0.129 | Cc1cc(C(=O)NCc2cccnc2CN)c(NCCc2cccc(F)c2)nc1-c1cnn(C)c1 [N-{[2-(aminomethyl)(3-pyridyl)]methyl}(2-{[2-(3-fluorophenyl)ethyl]amino}-5-methyl-6-(1-methylpyrazol-4-yl)(3-pyridyl))carboxamide] |
| 0.797 | O=C(NCc1cccnc1)c1ccc(-c2cccs2)nc1NCCc1ccccn1 [{2-[(2-(2-pyridyl)ethyl)amino]-6-(2-thienyl)(3-pyridyl)}-N-(3-pyridylmethyl)carboxamide] |
| 0.014 | NCc1ncccc1CNC(=O)c1cc(F)c(-c2cc[nH]n2)nc1NCCc1cccc(F)c1 [N-{[2-(aminomethyl)(3-pyridyl)]methyl}(5-fluoro-2-{[2-(3-fluorophenyl)ethyl]amino}-6-pyrazol-3-yl(3-pyridyl))carboxamide] |
| 0.194 | CC(C)(CNC(=O)c1ccc(-c2ccccc2C#N)nc1NCCc1cccc(F)c1)NC(=O)CCCNC(=O)OC(C)(C)C |

| Compound | IC50 [µM] |
| --- | --- |
| CC(C)(C)OC(=O)NCCC(=O)N1CCC[C@@H]1CNC(=O)c1cc(F)c(-c2cn[nH]c2)nc1NCCc1cccc(F)c1 [N-[((2R)-1-{3-[(tert-butoxy)carbonylamino]propanoyl}pyrrolidin-2-yl)methyl](5-fluoro-2-{[2-(3-fluorophenyl)ethyl]amino}-6-pyrazol-4-yl(3-pyridyl))carboxamide] | 0.98 |
| C[C@H](CNC(=O)c1cc(F)c(-c2cn[nH]c2)nc1NCCc1cccc(F)c1)NC(=O)OC(C)(C)C [N-{(2R)-2-[(tert-butoxy)carbonylamino]propyl}(5-fluoro-2-{[2-(3-fluorophenyl)ethyl]amino}-6-pyrazol-4-yl(3-pyridyl))carboxamide] | 8.21 |
